Among the data in the supplement of paper PMC12137928 are IC50 cell viability and efficacy values, retold here.

In assay [1] the test system is HCT116. The conditions noted are these: 72 h. An outline of the steps: (§1)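 After seeding at 250 cells per well in 1536-well plates, HCT116 cells were given 5 h to attach. CellTiter-Glo luminescence, scaled to 0% for vehicle and -100% for positive control, was pattern-corrected. Fitting with a four-parameter Hill model produced IC50 and maximal efficacy.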
The subject of assay [2] is HCT116. The assay is described as follows: efficacy (maximum % inhibition of viability vs DMSO); higher = more cytotoxic. The conditions noted are these: 72 h. In short, it runs like this: as §1

Structures can show the parent of a compound that is named as a salt.

Consider `CC(C)(C)NC(=O)[C@@H]1C[C@@H]2CCCC[C@@H]2CN1C[C@@H](O)[C@H](Cc1ccccc1)NC(=O)[C@H](CC(N)=O)NC(=O)c1ccc2ccccc2n1` [Saquinavir], for which the IC50 cell viability in assay [1] (ICRF193 0 nM) worked out at 29.1 µM; in assay [1] (ICRF193 200 nM), 20.6 µM. For the same molecule, the efficacy in assay [2] (ICRF193 0 nM) is 84.1%; in assay [2] (ICRF193 200 nM), 108%.
In the same order, the values of `CC(C)(C)c1cc(C(C)(C)C)c(NC(=O)c2c[nH]c3ccccc3c2=O)cc1O` [Ivacaftor] are 18.3 µM, 18.3 µM, 96.4% and 98.6%.
On to `CC(=O)Nc1cccc(-n2c(=O)n(C3CC3)c(=O)c3c(Nc4ccc(I)cc4F)n(C)c(=O)c(C)c32)c1` [Trametinib], for which the IC50 cell viability in assay [1] (ICRF193 0 nM) turned out to be 0.259 µM; in assay [1] (ICRF193 200 nM) it was 0.0206 µM. The efficacy in assay [2] (ICRF193 0 nM) came to 92.3%; in assay [2] (ICRF193 200 nM), 82.8%.
In the same order, the values of `COc1cccc2c1C(=O)c1c(O)c3c(c(O)c1C2=O)C[C@@](O)(C(C)=O)C[C@@H]3O[C@H]1C[C@H](N)[C@H](O)[C@H](C)O1` [Daunorubicin] are 0.461 µM, 0.0517 µM, 102% and 83.8%.
`C=C1CC[C@H](O)C/C1=C/C=C1\CCC[C@]2(C)[C@@H]([C@H](C)CCCC(C)(C)O)CC[C@@H]12` [Calcifediol (monohydrate)]: the IC50 cell viability in assay [1] (ICRF193 0 nM) was over 45.8 µM; in assay [1] (ICRF193 200 nM) it was 23.1 µM. In assay [2] (ICRF193 200 nM), this molecule displayed an efficacy of 42.8%.
Turning to `CO[C@H]1[C@@H](O)C[C@H](O[C@H]2[C@@H](O)C[C@H](O[C@H]3[C@@H](O)C[C@H](O[C@H]4CC[C@@]5(C)[C@H](CC[C@@H]6[C@@H]5C[C@@H](O)[C@]5(C)[C@@H](C7=CC(=O)OC7)CC[C@]65O)C4)O[C@@H]3C)O[C@@H]2C)O[C@@H]1C` [Methyldigoxin], the IC50 cell viability in assay [1] (ICRF193 0 nM) is 0.0891 µM; in assay [1] (ICRF193 200 nM) it was 0.1 µM. Also, the efficacy stood at 90.7% in assay [2] (ICRF193 0 nM) and 86.6% in assay [2] (ICRF193 200 nM).
Regarding `CC1(C)CCC(C)(C)c2cc(NC(=O)c3ccc(C(=O)O)cc3)ccc21` [Tamibarotene], the figures for the IC50 cell viability in assay [1] (ICRF193 0 nM) and in assay [1] (ICRF193 200 nM) were 20.6 µM and over 45.8 µM, respectively. The efficacy in assay [2] (ICRF193 0 nM) was 52.7%.
Take `CC(CN(C)C)CN1c2ccccc2Sc2ccc(C(F)(F)F)cc21` (centres undefined) [Trifluomeprazine 2-butenedioate]: the IC50 cell viability in assay [1] (ICRF193 0 nM) worked out at 16.4 µM; in assay [1] (ICRF193 200 nM) it was 18.3 µM. Besides, the results for the efficacy in assay [2] (ICRF193 0 nM) and in assay [2] (ICRF193 200 nM) were 40.2% and 49.5%, respectively.
In the same order, the values of `CCOC(=O)C1=C(C)NC(C)=C(C(=O)OCC)C1c1ccccc1/C=C/C(=O)OC(C)(C)C` [Lacidipine] are 18.3 µM, 20.6 µM, 94% and 108%.
In the same order, the values of `COc1cccc2c1C(=O)c1c(O)c3c(c(O)c1C2=O)C[C@@](O)(C(=O)CO)C[C@@H]3O[C@H]1C[C@H](N)[C@H](O[C@@H]2CCCCO2)[C@H](C)O1` [Pirarubicin] are 5.17 µM, 6.51 µM, 127% and 104%.
In the same order, the values of `CC(=O)O[C@H]1C(=O)[C@@]2(C)[C@H]([C@H](OC(=O)c3ccccc3)[C@]3(O)C[C@H](OC(=O)[C@H](O)[C@@H](NC(=O)c4ccccc4)c4ccccc4)C(C)=C1C3(C)C)[C@]1(OC(C)=O)CO[C@@H]1C[C@@H]2O` [Paclitaxel] are 0.0058 µM, 0.00461 µM, 71.1% and 61.8%.
For the molecule `Cc1cc(-n2c(=O)[nH]c(=O)n(C)c2=O)ccc1Oc1ccc(SC(F)(F)F)cc1` [TOLTRAZURIL], the IC50 cell viability in assay [1] (ICRF193 0 nM) is over 45.8 µM; in assay [1] (ICRF193 200 nM) it was 20.6 µM. For the same molecule, the efficacy in assay [2] (ICRF193 200 nM) stood at 41.6%.
As to `CC[C@]1(O)C[C@@H]2CN(CCc3c([nH]c4ccccc34)[C@@](C(=O)OC)(c3cc4c(cc3OC)N(C)[C@H]3[C@@](O)(C(N)=O)[C@H](O)[C@]5(CC)C=CCN6CC[C@]43[C@@H]65)C2)C1` [Vindesine sulfate salt], the IC50 cell viability in assay [1] (ICRF193 0 nM) and in assay [1] (ICRF193 200 nM) was 0.058 µM in each case. Also, the efficacy in assay [2] (ICRF193 0 nM) turned out to be 75.5%; in assay [2] (ICRF193 200 nM), 69.2%.
`N=C(NCCCCCCNC(=N)NC(=N)Nc1ccc(Cl)cc1)NC(=N)Nc1ccc(Cl)cc1` [Chlorhexidine]: the IC50 cell viability in assay [1] (ICRF193 0 nM) and in assay [1] (ICRF193 200 nM) was 18.3 µM throughout. The figures for the efficacy in assay [2] (ICRF193 0 nM) and in assay [2] (ICRF193 200 nM) were 104% and 103%, respectively.
Turning to `Nc1nc(N)c2nc(-c3ccccc3)c(N)nc2n1` [Triamterene], the IC50 cell viability in assay [1] (ICRF193 0 nM) and in assay [1] (ICRF193 200 nM) was 29.1 µM throughout. Further, the efficacy worked out at 95.4% in assay [2] (ICRF193 0 nM) and 92.7% in assay [2] (ICRF193 200 nM).
Regarding `CC[C@]1(O)C[C@H]2CN(CCc3c([nH]c4ccccc34)[C@@](C(=O)OC)(c3cc4c(cc3OC)N(C=O)[C@H]3[C@@](O)(C(=O)OC)[C@H](OC(C)=O)[C@]5(CC)C=CCN6CC[C@]43[C@@H]65)C2)C1` [Vincristine], the IC50 cell viability in assay [1] (ICRF193 0 nM) is 0.164 µM; in assay [1] (ICRF193 200 nM) it was 0.183 µM. Further, the efficacy turned out to be 70.2% in assay [2] (ICRF193 0 nM) and 63.5% in assay [2] (ICRF193 200 nM).
For `CN(C)CCC=C1c2ccccc2C(C)(C)c2ccccc21` [Melitracen hydrochloride], the IC50 cell viability is over 45.8 µM in assay [1] (ICRF193 0 nM) and 29.1 µM in assay [1] (ICRF193 200 nM). In addition, in assay [2] (ICRF193 200 nM), the efficacy came to 61.4%.
